According to ChEMBL document CHEMBL3994585, “Synthesis of α-santonin derivatives for diminutive effect on T and B-cell proliferation and their structure activity relationships” (Eur J Med Chem, 2017):

Columns and labels:
[1] = test system: T-cell; experiment: Immunosuppressive activity in Balb/c mouse T cells assessed as ConA-induced cell proliferation at 100 uM after 48 hrs by MTT assay relative to control; type: functional
[2] = test system: T-cell; experiment: Immunosuppressive activity in Balb/c mouse T cells assessed as ConA-induced cell proliferation at 10 uM after 48 hrs by MTT assay relative to control; type: functional
[3] = test system: T-cell; experiment: Immunosuppressive activity in Balb/c mouse T cells assessed as ConA-induced cell proliferation at 1 uM after 48 hrs by MTT assay relative to control; type: functional
[4] = test system: B-cell; experiment: Immunosuppressive activity in Balb/c mouse B cells assessed as LPS-induced cell proliferation at 100 uM after 48 hrs by MTT assay relative to control; type: functional
[5] = test system: B-cell; experiment: Immunosuppressive activity in Balb/c mouse B cells assessed as LPS-induced cell proliferation at 10 uM after 48 hrs by MTT assay relative to control; type: functional
[6] = test system: B-cell; experiment: Immunosuppressive activity in Balb/c mouse B cells assessed as LPS-induced cell proliferation at 1 uM after 48 hrs by MTT assay relative to control; type: functional
[7] = test system: T-cell; experiment: Immunostimulant activity in Balb/c mouse T cells assessed as ConA-induced cell proliferation at 100 uM after 48 hrs by MTT assay relative to control; type: ADME, cell-based
[8] = test system: T-cell; experiment: Immunostimulant activity in Balb/c mouse T cells assessed as ConA-induced cell proliferation at 10 uM after 48 hrs by MTT assay relative to control; type: ADME, cell-based
[9] = test system: T-cell; experiment: Immunostimulant activity in Balb/c mouse T cells assessed as ConA-induced cell proliferation at 1 uM after 48 hrs by MTT assay relative to control; type: ADME, cell-based
[10] = test system: B-cell; experiment: Immunostimulant activity in Balb/c mouse B cells assessed as LPS-induced cell proliferation at 10 uM after 48 hrs by MTT assay relative to control; type: ADME, cell-based
[11] = test system: T-cell; experiment: Cytotoxicity against Balb/c mouse T cells assessed as reduction in cell proliferation at 100 uM after 48 hrs by MTT assay; type: cell-based
[12] = test system: T-cell; experiment: Cytotoxicity against Balb/c mouse T cells assessed as reduction in cell proliferation at 10 uM after 48 hrs by MTT assay; type: cell-based
[13] = test system: T-cell; experiment: Cytotoxicity against Balb/c mouse T cells assessed as reduction in cell proliferation at 1 uM after 48 hrs by MTT assay; type: cell-based
[14] = test system: B-cell; experiment: Cytotoxicity against Balb/c mouse B cells assessed as reduction in cell proliferation at 100 uM after 48 hrs by MTT assay; type: cell-based
[15] = test system: B-cell; experiment: Cytotoxicity against Balb/c mouse B cells assessed as reduction in cell proliferation at 10 uM after 48 hrs by MTT assay; type: cell-based
[16] = test system: B-cell; experiment: Cytotoxicity against Balb/c mouse B cells assessed as reduction in cell proliferation at 1 uM after 48 hrs by MTT assay; type: cell-based

Structure (SMILES) | Activity [1] | Activity [2] | Activity [3] | Activity [4] | Activity [5] | Activity [6] | Activity [7] | Activity [8] | Activity [9] | Activity [10] | Activity [11] | Activity [12] | Activity [13] | Activity [14] | Activity [15] | Activity [16]
Cc1cc(OCc2cnnn2-c2ccc3c(c2)OCO3)c(C)c2c1CC[C@H]1[C@H](C)C(=O)O[C@@H]21 | -29.47% | -45.26% | -29.47% | -32.63% | -50.52% | -14.73% | – | – | – | – | – | – | – | – | – | –
COc1ccc2cc(-n3nncc3COc3cc(C)c4c(c3C)[C@@H]3OC(=O)[C@@H](C)[C@@H]3CC4)ccc2c1 | -93.9% | -95.12% | -93.9% | -94.01% | -25.64% | -36.75% | – | – | – | – | – | – | – | – | – | –
CCOC(=O)[C@H](C)c1ccc2c(C)cc(O)c(C)c2c1 | – | – | – | -6.41% | – | -3.84% | 5.91% | 39.78% | 15.59% | 23.5% | Toxic | Toxic | Toxic | Toxic | Toxic | Toxic
CC(=O)Nc1ccc(-n2nncc2COc2cc(C)c3c(c2C)[C@@H]2OC(=O)[C@@H](C)[C@@H]2CC3)cc1 | -6.31% | -29.47% | -28.42% | -8.42% | -36.84% | -44.21% | – | – | – | – | – | – | – | – | – | –
Cc1ccc(I)cc1-n1nncc1COc1cc(C)c2c(c1C)[C@@H]1OC(=O)[C@@H](C)[C@@H]1CC2 | -23.15% | -26.31% | -13.68% | -16.84% | -14.73% | -34.73% | – | – | – | – | – | – | – | – | – | –
Cc1cc(OCc2cnnn2-c2cccc(I)c2)c(C)c2c1CC[C@H]1[C@H](C)C(=O)O[C@@H]21 | -3.15% | -20% | -15.79% | -15.79% | -20% | -15.79% | – | – | – | – | – | – | – | – | – | –
Cc1cc(OCc2cnnn2-c2ccc(C=O)cc2)c(C)c2c1CC[C@H]1[C@H](C)C(=O)O[C@@H]21 | -20.83% | -6.66% | -5.83% | -35% | -22.5% | -24.16% | – | – | – | – | – | – | – | – | – | –
COc1cc(-n2nncc2COc2cc(C)c3c(c2C)[C@@H]2OC(=O)[C@@H](C)[C@@H]2CC3)cc(OC)c1OC | -16.84% | -14.73% | -20% | -14.73% | -26.31% | -16.84% | – | – | – | – | – | – | – | – | – | –
Cc1cc(O)c(C)c2c1CC[C@@H]([C@@H](C)C(=O)N1CCOCC1)C2 | -21.42% | – | – | -2.98% | – | -4.97% | – | 12.08% | 8.79% | 14.92% | Non-Toxic | Non-Toxic | Non-Toxic | Non-Toxic | Non-Toxic | Non-Toxic
COc1cccc(NC(=O)[C@H](C)[C@@H]2CCc3c(C)cc(O)c(C)c3C2)c1 | -31.86% | -12.63% | – | -13.93% | – | -0.99% | – | – | 8.79% | 3.98% | Non-Toxic | Non-Toxic | Toxic | Non-Toxic | Non-Toxic | Toxic
CCOC(=O)[C@H](C)c1ccc2c(C)cc(OC)c(C)c2c1 | -5.88% | -37.5% | -31.61% | -25.82% | -23.07% | -40.1% | – | – | – | – | Toxic | Toxic | Non-Toxic | Toxic | Toxic | Non-Toxic
